Columns and labels:
VI829 L100I+E138K+T369I = test: Antiviral activity, NNRTI-resistant virus L100I+E138K+T369I; assay type: cell-based, HIV-1; details: VI829, ** = L1001 + E138K + T3691
Method: (§1) The target compounds are evaluated for their anti-HIV-1 activity and cytotoxicity. In a primary screen, the anti-HIV activity against the laboratory strain Ba-L and against a primary subtype C isolate was determined in the TZM-bl cell line. Cellular toxicity on TZM-bl cells was evaluated using WST-1. Based on the primary screening results, the target compound was further evaluated for anti-HIV activity in different primary cells, including peripheral blood mononuclear cells, dendritic cells and CD4+ T lymphocytes. In addition, the activity against NNRTI-resistant viruses (V106A, Y181C, L100I+K103N, L100I+E138K+T369I and K101E+K103N+V108VI+V179M+Y181C+E138Q) was tested. Diarylpyrimidines (DAPY) TMC120, TMC125 and TMC278 were used as reference compounds.

VI829 Y181C = test: Antiviral activity, NNRTI-resistant virus Y181C; assay type: cell-based, HIV-1
Method: as §1, with “Based on the primary screening results, the target compound was further evaluated for anti-HIV activity in different primary cells, including peripheral blood mononuclear cells, dendritic cells and CD4+ T lymphocytes.” left out

in vitro = assay type: cell-based; details: human, Cytotoxicity CC50 TZM-bI
Source text: The Water Soluble Tetrazolium-1 (WST-1) Cell Proliferation Assay is a colorimetric assay for the measurement of cell proliferation and viability. The assay is based on the cleavage of the tetrazolium salt WST-1 (4-[3-(4-iodophenyl)-2-(4-nitrophenyl)-2H-5-tetrazolio]-1,3-benzene disulfonate) to a formazan dye by a complex cellular mechanism. This bioreduction is largely dependent on the glycolytic production of NAD(P)H in viable cells. Therefore, the amount of formazan dye formed correlates directly to the number of viable cells in the culture, and can be quantified by measuring the absorbance at 450 nm in a multiwell plate reader. The greater the number of viable cells, the greater the amount of formazan dye produced following the addition of WST-1. Cytotoxicity of each compound was evaluated using this WST-1 viability assay, according to the manufacturer's instructions (Roche, Vilvoorde, Belgium).
Briefly, ten thousand TZM-bl cells were seeded in a 96-well plate and cultured for 2 days in the presence of a serial dilution of compound. After this 48 h exposure, Cell Proliferation Reagent, WST-1, was added and absorbance at 450 nm was quantified after 90 min using a microplate reader (BioRad, Tokio, Japan). Each compound was tested in three replicate wells and in at least two independent experiments.
as §1, with “Based on the primary screening results, the target compound was further evaluated for anti-HIV activity in different primary cells, including peripheral blood mononuclear cells, dendritic cells and CD4+ T lymphocytes.” left out

[1] = tested on: Ba-L K101E + K103N + V108VI + V179M + Y181C + E138Q; test: Antiviral activity, NNRTI-resistant virus K101E+K103N+V108VI+V179M+Y181C+E138Q; assay type: cell-based, HIV-1; details: for FC (*): Ba-L, * = K101E + K103N + V108VI + V179M + Y181C + E138Q; for EC50: Human immunodeficiency virus 1, BAL, read-out: Antiviral activity-NNRTI-resistant viruses EC50 Ba-L *
Method: as §1

VI829 L100I+K103N = test: Antiviral activity, NNRTI-resistant virus L100I+K103N; assay type: cell-based, HIV-1
Method: as §1, with “Based on the primary screening results, the target compound was further evaluated for anti-HIV activity in different primary cells, including peripheral blood mononuclear cells, dendritic cells and CD4+ T lymphocytes.” left out

HIV-1 BaL = test: TZM-bl antiviral assay, wild type HIV-1 Ba-L; assay type: cell-based; details: Human immunodeficiency virus 1, BAL; TZM-bl cells, Ba-L wild type; read-out: Antiviral activity-wild type viruses EC50 TZM-bI Ba-L
Method: (§2) The JC53-BL cell line, also known as the TZM-bl cell line (NIH AIDS Research and Reference Reagent Program, Germantown, USA), was used for the evaluation of anti-HIV activity. TZM-bl cells were cultured in Dulbecco's […] (DMEM) (Lonza) containing 10% heat-inactivated FBS and 50 μg gentamycin/mL at 37° C. in a humidified 5% CO2, 95% air environment. Twice a week the cells were treated with 0.25% trypsin-1 mM EDTA (Lonza) for 10 minutes. The resulting cell suspension was washed with an equivalent amount of TZM-bl medium and subsequently seeded in a T75 culture flask (Greiner Bio-One, Germany) at 10^6 cells in 20 mL medium.
(§3) The antiviral activity of the newly designed compounds was measured by pre-incubating ten thousand TZM-bl cells (at 10^5 cells/mL in culture medium supplemented with 30 μg/mL DEAE dextran) in a 96-well plate for 30 minutes at 37° C., 5% CO2 in the presence or absence of serial dilutions of the respective compound. Subsequently, 200 TCID50 of HIV-1 BaL was added to each well and cultures were incubated for 48 hours before quantifying luciferase activity, using a TriStar LB941 luminometer (Berthold Technologies GmbH & Co. KG, Bad Wildbad, Germany). Each condition was evaluated in triplicate wells and in at least two independent experiments. The antiviral activity of the compound was expressed as the percentage of viral inhibition compared to the untreated controls and subsequently plotted against the compound concentration.
as §1, with “Based on the primary screening results, the target compound was further evaluated for anti-HIV activity in different primary cells, including peripheral blood mononuclear cells, dendritic cells and CD4+ T lymphocytes.” left out

Ba-L V106A = test: Antiviral activity, NNRTI-resistant virus V106A; assay type: cell-based, HIV-1
Method: as §1, with “Based on the primary screening results, the target compound was further evaluated for anti-HIV activity in different primary cells, including peripheral blood mononuclear cells, dendritic cells and CD4+ T lymphocytes.” left out

VI829 = test: TZM-bl antiviral assay, wild type VI829 (primary subtype C isolate); assay type: cell-based, HIV-1; details: Human immunodeficiency virus 1; TZM-bl cells, VI829 wild type; read-out: Antiviral activity-wild type viruses EC50 TZM-bI VI829
Method: as §2, §3
as §1, with “Based on the primary screening results, the target compound was further evaluated for anti-HIV activity in different primary cells, including peripheral blood mononuclear cells, dendritic cells and CD4+ T lymphocytes.” left out

SMILES	FC (**) (VI829 L100I+E138K+T369I)	EC50 (VI829 Y181C; Human immunodeficiency virus 1, read-out: Antiviral activity-NNRTI-resistant viruses EC50 VI829 Y181C)	FC (Y181C) (VI829 Y181C; VI829 Y181C)	CC50 at 48 h (in vitro)	FC (*) [1]	EC50 [1]	EC50 (VI829 L100I+K103N; Human immunodeficiency virus 1, read-out: Antiviral activity-NNRTI-resistant viruses EC50 VI829 L100I+K103N)	FC (L100I+K103N) (VI829 L100I+K103N; VI829 L100I+K103N)	EC50 (HIV-1 BaL)	FC (V106A) (Ba-L V106A; Ba-L V106A)	EC50 (Ba-L V106A; Human immunodeficiency virus 1, BAL, read-out: Antiviral activity-NNRTI-resistant viruses EC50 Ba-L V106A)	EC50 (VI829)
Cc1cc(C=CC#N)cc(C)c1Nc1nc(Nc2ccc(C#N)cc2)nc(N(C)C)n1 [T5, 4-((4-((4-(2-cyanovinyl)-2,6-dimethylphenyl)amino)-6-(dimethylamino)-1,3,5-triazin-2-yl)amino)benzonitrile]	31	27 nM	6	8060 nM	78	455 nM	74 nM	17	5.8 nM	2	12 nM	4.4 nM
Cc1cc(C=CC#N)cc(C)c1Oc1nc(Nc2ccc(C#N)cc2)nc(N2CCCCC2)n1 [T14, 4-((4-(4-(2-cyanovinyl)-2,6-dimethylphenoxy)-6-(piperidin-1-yl)-1,3,5-triazin-2-yl)amino)benzonitrile]				> 100000 nM	>47	> 1000 nM			21 nM			
CNc1nc(Nc2ccc(C#N)cc2)nc(Nc2c(C)cc(C=CC#N)cc2C)n1 [T4, 4-((4-((4-(2-cyanovinyl)-2,6-dimethylphenyl)amino)-6-(methylamino)-1,3,5-triazin-2-yl)amino)benzonitrile]				5910 nM	39	66 nM			1.7 nM			
Cc1cc(C=CC#N)cc(C)c1Nc1nc(Nc2ccc(C#N)cc2)nc(N2CCOCC2)n1 [T8, 4-((4-((4-(2-cyanovinyl)-2,6-dimethylphenyl)amino)-6-morpholino-1,3,5-triazin-2-yl)amino)benzonitrile]				11400 nM	89	634 nM			7.1 nM			
Cc1cc(C=CC#N)cc(C)c1Nc1nc(Nc2ccc(C#N)cc2)nc(N2CCN(C)CC2)n1 [T9, 4-((4-((4-(2-cyanovinyl)-2,6-dimethylphenyl)amino)-6-(4-methylpiperazin-1-yl)-1,3,5-triazin-2-yl)amino)benzonitrile]				21200 nM	37	316 nM			8.5 nM			
N#CC=Cc1cc(F)c(Nc2nc(N)nc(Nc3ccc(C#N)cc3)n2)c(F)c1 [T10, 4-((4-amino-6-((4-(2-cyanovinyl)-2,6-difluorophenyl)amino)-1,3,5-triazin-2-yl)amino)benzonitrile]				21400 nM	1113	590 nM			0.53 nM			

From US9650348B2, “Triazines with suitable spacers for treatment and/or prevention of HIV infections” (Universiteit Antwerpen, priority 2012, dated 2017)
